Laboratory results taken from patent publication US10953011B2, “Methods of treating virally associated cancers with histone deacetylase inhibitors” (priority 2019, dated 2021).
pIC50: −log10 of the molar value. Like-named read-outs stand apart in the source and are kept apart here.

Experiments:
[1] = target: T1, HDAC8 (Homo sapiens, UniProt Q9BY41); test: biochemical
T1 sequence (Q9BY41 1-377): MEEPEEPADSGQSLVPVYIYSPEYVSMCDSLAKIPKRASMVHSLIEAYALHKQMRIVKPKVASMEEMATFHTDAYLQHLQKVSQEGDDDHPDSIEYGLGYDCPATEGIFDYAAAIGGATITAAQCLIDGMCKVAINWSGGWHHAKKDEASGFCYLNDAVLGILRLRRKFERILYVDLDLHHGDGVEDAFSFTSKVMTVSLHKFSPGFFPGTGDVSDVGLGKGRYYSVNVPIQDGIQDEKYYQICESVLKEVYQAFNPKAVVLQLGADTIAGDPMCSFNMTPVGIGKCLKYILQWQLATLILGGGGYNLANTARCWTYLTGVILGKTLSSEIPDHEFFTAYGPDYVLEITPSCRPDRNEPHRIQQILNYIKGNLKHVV
Experimental: (§1) Briefly, all of the compounds are dissolved in DMSO. A series of dilutions of the compounds were prepared with 10% DMSO in HDAC assay buffer and 5 μl of the dilution was added to a 50 μl reaction so that the final concentration of DMSO is 1% in all of reactions. The compounds were pre-incubated in duplicate at RT for 1 hour in a mixture containing HDAC assay buffer, 5 μg BSA, HDAC enzyme (see Table 7) and a the particular HDACi. After 1 hour, the enzymatic reactions were initiated by the addition of HDAC substrate (BPS Bioscience) to a final concentration of 10 μM or 2 μM. The enzymatic reaction proceeded for 30 minutes at 37° C.
HDAC activity assays were performed in duplicates at each concentration. The fluorescent intensity data were analyzed using the computer software, Graphpad Prism. In the absence of the compound, the fluorescent intensity (Ft) in each data set was defined as 100% activity. In the absence of HDAC, the fluorescent intensity (Fb) in each data set was defined as 0% activity. The percent activity in the presence of each compound was calculated according to the following equation: % activity=(F−Fb)/(Ft−Fb), where F=the fluorescent intensity in the presence of the compound. […]

[2] = Single dose pharmacokinetics of oral nanatinostat in patients; type: in vivo, humans; conditions: human, serum; for AUC: read-out: AUC (ng-h/mL), geometric mean; for AUC(0-t): read-out: AUClast (ng-h/mL), geometric mean; for Cmax: read-out: Cmax (ng/mL), geometric mean; for Tmax: read-out: Tmax (h), median (range)
[3] = test system: Histone 3 acetylation in peripheral blood mononuclear cells; test: H3 acetylation in PBMC by flow cytometry; type: cell-based, human
From the text: Percentage of cells with H3 acetylation, as determined by flow cytometry, is shown.
Since H3 acetylation is a pharmacodynamic biomarker of Nstat activity, acetylation of H3 was examined in treated cells.

[4] = target: T2, HDAC7 (Homo sapiens, UniProt Q8WUI4); test: in vitro HDAC inhibition assay (fluorescence); type: biochemical; conditions: 1 h pre-incubation; 2 μM HDAC Substrate Class 2a; read-out: IC50 (μM) HDAC7
T2 sequence (Q8WUI4 1-952): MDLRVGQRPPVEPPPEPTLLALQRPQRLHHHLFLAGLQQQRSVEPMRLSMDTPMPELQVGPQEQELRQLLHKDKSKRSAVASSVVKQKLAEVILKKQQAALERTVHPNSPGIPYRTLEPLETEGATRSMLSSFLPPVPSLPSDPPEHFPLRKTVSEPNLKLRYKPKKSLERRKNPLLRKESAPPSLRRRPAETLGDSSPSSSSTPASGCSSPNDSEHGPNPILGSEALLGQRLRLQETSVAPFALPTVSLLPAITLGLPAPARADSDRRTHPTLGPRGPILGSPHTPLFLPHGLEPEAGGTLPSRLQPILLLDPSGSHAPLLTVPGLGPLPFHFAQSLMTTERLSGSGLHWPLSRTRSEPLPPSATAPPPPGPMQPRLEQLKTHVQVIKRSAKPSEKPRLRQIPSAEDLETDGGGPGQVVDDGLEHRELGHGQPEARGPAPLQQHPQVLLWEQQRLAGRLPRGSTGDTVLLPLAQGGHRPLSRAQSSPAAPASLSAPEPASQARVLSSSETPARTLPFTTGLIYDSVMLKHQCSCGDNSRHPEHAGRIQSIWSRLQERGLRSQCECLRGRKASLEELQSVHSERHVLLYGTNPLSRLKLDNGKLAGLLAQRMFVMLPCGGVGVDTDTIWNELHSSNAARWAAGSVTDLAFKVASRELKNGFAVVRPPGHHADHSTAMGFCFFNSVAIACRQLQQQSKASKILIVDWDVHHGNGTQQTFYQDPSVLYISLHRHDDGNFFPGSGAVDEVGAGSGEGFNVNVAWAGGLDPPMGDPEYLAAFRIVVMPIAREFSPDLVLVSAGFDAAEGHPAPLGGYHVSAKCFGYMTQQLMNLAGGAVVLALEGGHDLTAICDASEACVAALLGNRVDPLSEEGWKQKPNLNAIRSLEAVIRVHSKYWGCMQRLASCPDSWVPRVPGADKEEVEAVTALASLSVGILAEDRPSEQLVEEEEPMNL
Experimental: as §1
HDAC activity assays were performed in duplicates at each concentration. The fluorescent intensity data were analyzed using the computer software, Graphpad Prism. In the absence of the compound, the fluorescent intensity (Ft) in each data set was defined as 100% activity. In the absence of HDAC, the fluorescent intensity (Fb) in each data set was defined as 0% activity. The percent activity in the presence of each compound was calculated according to the following equation: % activity=(F−Fb)/(Ft−Fb), where F=the fluorescent intensity in the presence of the compound.
The values of % activity versus a series of compound concentrations were then plotted using non-linear regression analysis of Sigmoidal dose-response curve generated with the equation Y=B+(T−B)/1+10^((Log EC50-X)×Hill Slope), where Y=percent activity, B=minimum percent activity, T=maximum percent activity, X=logarithm of compound and Hill Slope=slope factor or Hill coefficient. The IC50 value was determined by the concentration causing a half-maximal percent activity.

[5] = 5 mg, A = 5 mg VRx-3996 p.o. and 450 mg Valganciclovir p.o., single dose
[6] = 10 mg, B = 10 mg VRx-3996 p.o. and 450 mg Valganciclovir p.o., single dose
[7] = 10 mg, C = 10 mg VRx-3996 p.o. and 900 mg Valganciclovir p.o., single dose

O=C(NO)c1cnc(N2C[C@@H]3[C@H](C2)[C@H]3NCc2ccc3cc(F)ccc3n2)nc1 [Nanatinostat, 2-((1R,5S,6s)-6-(((6-fluoroquinolin-2-yl)methyl)amino)-3-azabicyclo[3.1.0]hexan-3-yl)-N-hydroxypyrimidine-5-carboxamide]
pIC50 [1]: 6.07 | AUC [2, 5]: 117 ng·h/mL | AUC(0-t) [2, 5]: 40.5 ng·h/mL | Cmax [2, 5]: 18.5 ng/mL | half-life ([2]; 5 mg, A = 5 mg VRx-3996 p.o. and 450 mg Valganciclovir p.o., single dose, read-out: Half-Life (h), geometric mean (converted)): 2.18 h | Tmax [2, 5]: 3 h | AUC [2, 6]: 317 ng·h/mL | AUC(0-t) [2, 6]: 165 ng·h/mL | Cmax [2, 6]: 62.6 ng/mL | half-life ([2]; 10 mg, B = 10 mg VRx-3996 p.o. and 450 mg Valganciclovir p.o., single dose, read-out: Half-Life (h), geometric mean (converted)): 1.17 h | Tmax [2, 6]: 2 h | AUC [2, 7]: 322 ng·h/mL | AUC(0-t) [2, 7]: 227 ng·h/mL | Cmax [2, 7]: 78.9 ng/mL | half-life ([2]; 10 mg, C = 10 mg VRx-3996 p.o. and 900 mg Valganciclovir p.o., single dose, read-out: Half-Life (h), geometric mean (converted)): 1.67 h | Tmax [2, 7]: 1 h | half-life ([2]; humans, oral, summary of Table 6, read-out: T1/2 (converted)): ~2 h | Duration of effect on H3 acetylation ([3]; PBMC of healthy donors, time-course, doses down to 10 nM, FIG. 3): long-lasting | Potency in inducing elevated levels of Histone 3 acetylation ([3]; PBMC of healthy volunteers, even at 100 nM, FIG. 2): much more potent than entinostat | IC50 [4]: 1.6 µM
